Results taken from patent US20220175723A1, “METHODS AND COMPOSITIONS RELATING TO INHIBITION OF ALDEHYDE DEHYDROGENASES FOR TREATMENT OF CANCER” (THE PENN STATE RESEARCH FOUNDATION, priority 2019, published 2022).
Like-named read-outs stand apart in the source and are kept apart here.

How the values were obtained:
ALDH2 = molecular target: T1, ALDH2 (Homo sapiens, UniProt P05091); assay: ALDH isoform-specific enzyme assay (NADH absorbance 340 nm); type: biochemical; conditions: Study 1; read-out: IC50s ALDH2
T1 construct: purchased R & D Systems, Inc, Minneapolis, Minn., USA
T1 sequence (P05091 18-517): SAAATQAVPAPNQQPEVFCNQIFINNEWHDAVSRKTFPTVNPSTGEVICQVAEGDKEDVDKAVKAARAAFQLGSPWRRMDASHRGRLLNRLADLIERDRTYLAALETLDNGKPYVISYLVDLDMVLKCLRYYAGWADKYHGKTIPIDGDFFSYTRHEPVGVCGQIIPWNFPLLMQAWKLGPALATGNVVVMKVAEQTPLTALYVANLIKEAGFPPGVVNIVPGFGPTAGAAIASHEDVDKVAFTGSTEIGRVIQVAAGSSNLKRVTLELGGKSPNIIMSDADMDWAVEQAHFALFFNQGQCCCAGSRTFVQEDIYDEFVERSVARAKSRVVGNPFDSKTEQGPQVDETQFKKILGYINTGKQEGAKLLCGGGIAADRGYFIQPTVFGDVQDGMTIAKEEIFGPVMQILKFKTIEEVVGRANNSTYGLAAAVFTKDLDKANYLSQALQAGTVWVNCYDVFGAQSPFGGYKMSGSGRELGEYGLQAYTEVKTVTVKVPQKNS

ALDH1A1 = molecular target: T2, ALDH1A1 (Homo sapiens, UniProt P00352); assay: as above; type: biochemical; conditions: Study 1; read-out: IC50s ALDH1A1
T2 construct: purchased R & D Systems, Inc, Minneapolis, Minn., USA
T2 sequence (P00352 1-501): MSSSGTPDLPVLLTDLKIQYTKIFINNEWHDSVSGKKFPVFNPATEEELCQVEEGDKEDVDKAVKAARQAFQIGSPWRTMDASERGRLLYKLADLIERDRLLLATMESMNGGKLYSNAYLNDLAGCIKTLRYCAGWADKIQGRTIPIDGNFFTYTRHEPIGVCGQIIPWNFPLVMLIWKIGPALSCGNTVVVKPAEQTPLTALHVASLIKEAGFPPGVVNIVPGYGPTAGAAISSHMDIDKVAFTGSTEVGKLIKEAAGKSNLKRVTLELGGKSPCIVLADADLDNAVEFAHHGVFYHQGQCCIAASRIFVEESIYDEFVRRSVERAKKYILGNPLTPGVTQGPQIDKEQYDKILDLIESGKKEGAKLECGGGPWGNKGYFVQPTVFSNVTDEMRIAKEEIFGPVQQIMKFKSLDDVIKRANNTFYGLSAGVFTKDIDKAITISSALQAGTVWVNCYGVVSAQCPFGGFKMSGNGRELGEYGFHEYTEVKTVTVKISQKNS

[1] = tested on: total cellular ALDH activity, 1205 Lu cell lysates; assay: Total cellular ALDH activity in cell lysates; type: biochemical, human; conditions: 1 uM inhibitor, 15 minutes
Source text: (§1) The ALDHs reduce ROS, lipid peroxidation and toxic aldehyde accumulation, the latter of which can lead to cell damage and apoptosis as shown in FIG. 6A. Thus, inhibition of total cellular ALDH activity can increase toxic aldehydes, oxidative damage and apoptosis.

[2] = tested on: total cellular ALDH activity, UACC 903 cell lysates; assay: Total cellular ALDH activity in cell lysates; type: biochemical, human; conditions: 1 uM inhibitor, 15 minutes
Source text: as §1

HCT116 cells [3] = assay: Apoptosis by Annexin-V/7-AAD with or without NAC; type: cell-based, human; set-up: dose or concentration left out as unconfirmed; conditions: vs DMSO or 3a
Procedure: (§2) FIGS. 30A-30F. […] ROS levels were measured using DCFDA dye and compared to DMSO control. Malondialdehyde (MDA) levels were measured in colon cancer cell line HCT116 using thiobarbituric acid and compared to DMSO control (FIG. 30C). Cell survival assay was performed by MTS assay (FIG. 30D), apoptosis by Annexin-V/7-AAD (FIG. 30E) and cell cycle by propidium iodide staining in colon cancer cell line HCT116 (FIG. 30F).
(§3) Further, the effect of the addition of NAC on the antiproliferative and apoptotic activity of ALDH inhibitors was also evaluated.

HCT116 and HT29 cells = assay: ROS assay (DCFDA), Study 2, with or without NAC; type: cell-based, human
HCT116 cells [4] = assay: Cell cycle by propidium iodide staining with or without NAC; type: cell-based, human
Procedure: as §2, §3

HCT116 cells [5] = assay: Cell survival MTS assay with or without NAC; type: cell-based, human
Procedure: as §2, §3

[6] = Toxicity study, 14 days i.p.; type: in vivo, Swiss-Webster mice; conditions: 5 mg/kg/day i.p. for 14 days, vs DMSO
Procedure: To determine the toxicity of 3(h-l), compounds were injected i.p. into Swiss-Webster mice once daily for 14 days (Id.). Animals were monitored for changes in body weight, behavior and physical distress compared to DMSO control.

ALDH3A1 = molecular target: T3, ALDH3A1 (Homo sapiens, UniProt P30838); assay: ALDH isoform-specific enzyme assay (NADH absorbance 340 nm); type: biochemical
T3 construct: purchased R & D Systems, Inc, Minneapolis, Minn., USA
T3 sequence (P30838 1-453): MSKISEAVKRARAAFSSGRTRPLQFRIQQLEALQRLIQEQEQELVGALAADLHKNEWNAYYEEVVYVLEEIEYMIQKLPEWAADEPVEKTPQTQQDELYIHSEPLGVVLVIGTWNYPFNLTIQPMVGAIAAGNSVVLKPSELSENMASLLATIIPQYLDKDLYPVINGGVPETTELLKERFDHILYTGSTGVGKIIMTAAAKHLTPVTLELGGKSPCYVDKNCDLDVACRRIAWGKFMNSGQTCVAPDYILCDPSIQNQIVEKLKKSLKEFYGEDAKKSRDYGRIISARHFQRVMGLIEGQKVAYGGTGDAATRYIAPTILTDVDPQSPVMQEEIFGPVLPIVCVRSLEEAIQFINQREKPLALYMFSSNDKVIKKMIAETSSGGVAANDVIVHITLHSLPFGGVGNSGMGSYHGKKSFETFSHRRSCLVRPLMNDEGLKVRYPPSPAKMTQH

UACC 903 cells = assay: Cell viability MTS assay, UACC 903; type: cell-based, human; conditions: 100 μM, 72 hours
[7] = Study 1, read-out: IC50s ALDH3A1

IC50 (ALDH2)	IC50 (ALDH1A1)	SMILES	reduction of total cellular ALDH activity, 1205 Lu [1]	reduction of total cellular ALDH activity, UACC 903 [2]	IC50 (ALDH3A1; [7])	further results
144 µM	139 µM	Cc1nc2ccccc2n1S(=O)(=O)c1ccc(F)cc1 [CB7]				
		CCOC(=O)CSc1nc2c(sc3ccccc32)c(=O)n1CCCN1CCCC1 [CM037]	significantly reduced	significantly reduced		
		Br.N=C(N)SCc1ccc(CN2C(=O)C(=O)c3cc(C(F)(F)F)ccc32)cc1 [Compound 3h, 2-[4-(2,3-Dioxo-5-trifluoromethyl-2,3-dihydroindol-1-ylmethyl)benzyl]isothiourea hydrobromide]				percentage of cells both Annexin-V and 7-AAD positive (HCT116 cells [3]): significantly higher; ROS levels (HCT116 and HT29 cells; 5 μM, 24 hours, vs DMSO): significantly increased; ROS-inducing activity on addition of NAC (HCT116 and HT29 cells; with N-Acetyl Cysteine (NAC)): abrogated; cell cycle effect (HCT116 cells [4]; HCT116): G2/M arrest; cell cycle effect on addition of NAC (HCT116 cells [4]; HCT116, with NAC): reversed; increase of cell killing IC50 by addition of NAC (HCT116 cells [5]): 6 fold; weight loss [6]: no significant weight loss
		CCN(CC)c1ccc(C=O)cc1 [DEAB]	significantly reduced	significantly reduced	15.1 µM	IC50 (ALDH3A1; Study 1, text, read-out: IC50 ALDH3A1): 15.1 µM; reduction of UACC 903 cell survival (UACC 903 cells): 30%
169 µM	15.6 µM	O=C1Nc2ccccc2C1=O [Isatin]	ineffective	ineffective	5.05 µM	
